Experimental data taken from article PMC6722823, “Peptide Antagonists for P-selectin Discriminate between Sulfatide-Dependent Platelet Aggregation and PSGL-1-Mediated Cell Adhesion” (Journal of Clinical Medicine, 2019).

Assays:
Assay type in all cases: binding
Conditions in all cases: Fc fusion protein 40 nM
E-selectin = target: T1, E-selectin (Homo sapiens, UniProt P16581); experiment: Surface plasmon resonance (Biacore), sulfatide-coated L1 chip, E-selectin
T1 construct: purchased R&D systems (Minneapolis, MN, USA)
Protocol: (§1) A Biacore 2000 instrument (Biacore AB, Uppsala, Sweden) was used to analyze the interaction between sulfatides and P-, L, and E-selectins, as described. Experiments were performed at room temperature using running buffer (20 mmol/L HEPES, 150 mmol/L NaCl, 1 mmol/L CaCl2, 0.005% Surfactant P20, pH 7.4). Sulfatides were immobilized on L1 sensor chips at 5 μL/min according to the manufacturer’s instructions. Binding kinetics of human fusion proteins IgG and P-, L- and E- selectins to the immobilized sulfatides were determined by injection of the fusion proteins. At the end of each injection, the sensor chips were regenerated with 100 mmol/L NaOH and equilibrated with running buffer. All curves were corrected for non-specific binding by an online baseline subtraction of ligand binding to a control flow channel. Binding kinetics were analyzed using BIAevaluation software (V2.1; Pharmacia Biosensor, Uppsala, Sweden).

P-selectin = target: T2, P-selectin (Homo sapiens, UniProt P16109); experiment: Surface plasmon resonance (Biacore), sulfatide-coated L1 chip, P-selectin
T2 construct: purchased R&D systems (Minneapolis, MN, USA)
Protocol: as §1

L-selectin = target: T3, L-selectin (Homo sapiens, UniProt P14151); experiment: Surface plasmon resonance (Biacore), sulfatide-coated L1 chip, L-selectin
T3 sequence (P14151 39-318 limits assumed): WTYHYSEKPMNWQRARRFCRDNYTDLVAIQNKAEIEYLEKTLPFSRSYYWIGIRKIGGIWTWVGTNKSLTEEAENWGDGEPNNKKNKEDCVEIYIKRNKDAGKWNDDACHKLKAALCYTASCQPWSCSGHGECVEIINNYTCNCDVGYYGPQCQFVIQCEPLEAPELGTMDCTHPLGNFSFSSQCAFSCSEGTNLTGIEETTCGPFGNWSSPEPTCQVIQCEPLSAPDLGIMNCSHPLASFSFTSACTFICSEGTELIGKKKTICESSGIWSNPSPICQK
Protocol: as §1

T1 sequence (P16581 with tags, fused parts or gaps limits assumed): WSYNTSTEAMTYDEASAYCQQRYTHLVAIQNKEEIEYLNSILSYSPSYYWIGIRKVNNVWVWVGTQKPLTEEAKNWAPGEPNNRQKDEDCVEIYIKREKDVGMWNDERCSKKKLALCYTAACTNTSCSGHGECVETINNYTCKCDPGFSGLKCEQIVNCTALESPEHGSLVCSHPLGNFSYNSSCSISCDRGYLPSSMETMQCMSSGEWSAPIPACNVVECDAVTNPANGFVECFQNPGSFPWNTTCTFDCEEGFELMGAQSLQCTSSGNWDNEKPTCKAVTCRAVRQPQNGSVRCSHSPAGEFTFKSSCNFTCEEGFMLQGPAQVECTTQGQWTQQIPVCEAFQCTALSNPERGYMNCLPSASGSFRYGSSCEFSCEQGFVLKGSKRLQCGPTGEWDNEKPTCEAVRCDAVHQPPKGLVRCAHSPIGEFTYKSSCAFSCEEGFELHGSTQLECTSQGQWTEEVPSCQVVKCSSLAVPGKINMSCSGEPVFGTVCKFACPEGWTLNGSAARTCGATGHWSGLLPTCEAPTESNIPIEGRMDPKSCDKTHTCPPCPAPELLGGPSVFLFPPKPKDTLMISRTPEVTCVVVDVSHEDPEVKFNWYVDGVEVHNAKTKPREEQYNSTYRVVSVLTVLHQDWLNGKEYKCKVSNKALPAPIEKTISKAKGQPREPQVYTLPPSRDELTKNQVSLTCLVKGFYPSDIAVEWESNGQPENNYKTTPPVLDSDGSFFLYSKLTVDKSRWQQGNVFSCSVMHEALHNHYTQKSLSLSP
T2 sequence (P16109 with tags, fused parts or gaps limits assumed): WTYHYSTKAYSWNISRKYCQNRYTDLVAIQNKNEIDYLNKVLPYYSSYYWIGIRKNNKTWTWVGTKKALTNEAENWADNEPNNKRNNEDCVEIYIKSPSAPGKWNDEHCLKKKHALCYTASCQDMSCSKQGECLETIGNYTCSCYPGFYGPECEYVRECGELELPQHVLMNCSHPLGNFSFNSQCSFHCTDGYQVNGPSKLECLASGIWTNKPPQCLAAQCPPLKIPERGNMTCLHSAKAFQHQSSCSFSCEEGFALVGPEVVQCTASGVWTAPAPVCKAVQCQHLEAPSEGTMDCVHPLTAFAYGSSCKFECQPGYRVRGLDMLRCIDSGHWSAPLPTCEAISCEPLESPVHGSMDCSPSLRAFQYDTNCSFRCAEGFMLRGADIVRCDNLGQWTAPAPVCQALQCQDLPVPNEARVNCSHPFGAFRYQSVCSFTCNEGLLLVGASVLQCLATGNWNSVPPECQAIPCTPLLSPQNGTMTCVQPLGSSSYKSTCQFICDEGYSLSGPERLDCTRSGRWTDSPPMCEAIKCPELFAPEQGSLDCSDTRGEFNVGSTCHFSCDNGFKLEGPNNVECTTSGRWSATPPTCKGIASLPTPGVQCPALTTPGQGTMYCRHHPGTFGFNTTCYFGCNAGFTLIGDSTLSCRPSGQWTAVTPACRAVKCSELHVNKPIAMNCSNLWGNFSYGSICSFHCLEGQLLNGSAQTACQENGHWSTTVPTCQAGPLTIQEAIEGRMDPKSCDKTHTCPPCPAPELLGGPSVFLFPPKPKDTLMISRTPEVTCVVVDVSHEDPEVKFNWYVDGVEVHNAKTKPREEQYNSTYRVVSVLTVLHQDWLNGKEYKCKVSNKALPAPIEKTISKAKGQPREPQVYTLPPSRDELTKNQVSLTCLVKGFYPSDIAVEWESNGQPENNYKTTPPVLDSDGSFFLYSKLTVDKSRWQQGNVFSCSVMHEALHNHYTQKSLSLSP

cerebroside sulfate, bovine [Sulfatides]
Binding of E-selectin to sulfatide-coated sensor chip (E-selectin): not E-selectin
Binding of P-selectin to sulfatide-coated sensor chip (P-selectin): bind
Binding of L-selectin to sulfatide-coated sensor chip (L-selectin): bind
